{"source": "paper PMC6030077", "about": "“Dual role of HDAC10 in lysosomal exocytosis and DNA repair promotes neuroblastoma chemoresistance” (Scientific Reports, 2018)", "key": {"BE(2)-C cells [1]": {"system": "BE(2)-C cells", "test": "Colony formation assay", "format": "cell-based, human", "conditions": "treated for 24 h, 11 more days growth", "description": "RNA isolation and real-time RT-PCR\nRNA was isolated from neuroblastoma cell lines using the RNeasy MiniKit (Qiagen) according to\nmanufacturer's instructions. Real-time RT-PCR was performed as described in1. Data were normalized\nto neuroblastoma housekeeping genes SDHA and […] and depicted as fold change relative to\nnegative control. The following primer pairs were used: HPRT (hypoxanthine\nphosphoribosyltransferase 1, forward: 5′-[…]-3′ reverse: 5′-\n-3′, ABCB1 (P-GP), forward: 5'-[…]-\n3', reverse: 5'-[…]-3' , SDHA (succinate dehydrogenase complex,\nsubunit A, forward: 5′-[…]-3′, reverse: 5′-\nBE(2)-C cells were seeded on 6-well plates at a density of 800 cells per well and treated as indicated\nfor 24 hours. After 24 hours, drugs were washed out and cells were allowed to grow for 11 more days\nbefore staining of viable cell colonies with crystal violet (1 % crystal violet (w/v) in 70% ethanol). For\nquantification, the plates were scanned, and colonies were counted in […] binary pictures with the\nITCN plugin for ImageJ software (U. S. National Institutes of Health, Bethesda, MD,\nUSA; http://imagej.nih.gov/ij/)."}, "BE(2)-C cells [2]": {"system": "BE(2)-C cells", "test": "Flow cytometric quantification of intracellular doxorubicin accumulation, BE(2)-C", "format": "cell-based, human", "description": "(§1) For flow cytometric quantification of intracellular doxorubicin after HDAC6/10 inhibition, BE(2)-C, SK-N-AS, IMR-32, HAP1 wild type and HDAC10 knockout cells were seeded in 6-well dishes at a density of 1.5 ∗ 10^5 cells/well (BE(2)-C and SK-N-AS, HAP1) and 3 ∗ 10^5 cells/well (IMR-32). Cells were treated with 25 ng/ml, 50 ng/ml, 100 ng/ml or 1 µg/ml doxorubicin, respectively, for 3–48 h (see respective figure legend). Where indicated, cells were co-treated with HDAC6/10 or lysosomal inhibitors. In case of co-treatment with vacuolin-1, vacuolin-1 was directly added to cells under doxorubicin treatment 1 h or 24 h prior to analysis. Flow cytometric quantification of intracellular doxorubicin after HDAC6, HDAC10 or P-glycoprotein knockdown in BE(2)-C cells was performed 5 days (P-glycoprotein) or 6 days (HDAC6/10) after transfection with siRNA. To that end, cells were seeded 3–4 days after transfection into 6-well dishes at 1.5 ∗ 10^5 cells per well and treated with 100 ng/ml doxorubicin +/− HDAC6/10 and lysosomal inhibitors for the last 24 h. After doxorubicin treatment, BE(2)-C, SK-N-AS, IMR-32 and HAP1 cells were washed with ice-cold RPMI w/o phenol-red and detached using Trypsin/EDTA for 3 minutes at 37 °C. Cells were centrifuged, resuspended in RPMI w/o phenol red and doxorubicin fluorescence was quantified on a BD FACSCanto II platform using the PE filter setting."}, "BE(2)-C cells [3]": {"system": "BE(2)-C cells", "test": "Alkaline single cell gel electrophoresis assay (comet assay)", "format": "cell-based, human", "conditions": "18 h", "description": "BE(2)-C cells were treated with the HDAC6/10 inhibitor tubastatin A alone or in combination with the genotoxic drug doxorubicin (100 ng/ml doxorubicin, 7.5 µM tubastatin) for 18 h. Untreated cell aliquots and cells irradiated with 5 Gy (^137Cs radiation source, dose rate of 1 Gy min^−1) were used as negative and positive controls, respectively. Cells were subsequently analyzed by the alkaline comet assay as previously described[68],[69] with some modifications. In brief, the cells were mixed with 0.7% low-melting temperature agarose (Biozym), plated on two-well slides (Trevigen), and subsequently lysed overnight. Single cell electrophoresis was performed at 4 °C. Analysis of DNA damage was accomplished by fluorescence microscopy using a fully automated cell scanning system Metafer-4 (Metasystems) as described in[70]. DNA damage was assessed as “Tail DNA in %”. Statistical evaluation of two differently treated cell aliquots was performed with the Mann Whitney test using GraphPad Prism version 5.04 for Windows."}, "BE(2)-C cells [4]": {"system": "BE(2)-C cells", "test": "Cell viability, automated trypan blue exclusion, BE(2)-C", "format": "cell-based, human", "description": "(§2) Adherent cell lines were trypsinized and cells were pooled with corresponding supernatant, centrifuged and resuspended in 1.5 ml cell culture media. Cell viability was measured by automated trypan blue staining with the Vi-Cell XR Cell Viability Analyzer from Beckman Coulter (Krefeld, Germany)."}, "[5]": {"system": "proliferating human fibroblasts", "test": "Flow cytometric analysis of cellular doxorubicin fluorescence, fibroblasts", "format": "cell-based", "conditions": "100 ng/ml doxorubicin 48 h; tubastatin A 7.5 µM, vacuolin-1 10 µM, verapamil 10 µM"}, "BE(2)-C cells [6]": {"system": "BE(2)-C cells", "test": "Pulse-chase analysis of doxorubicin secretion/retention", "format": "cell-based, human", "conditions": "12 h pre-treatment, 1 µg/ml doxorubicin 3 h, washout, relative to t0", "description": "To test whether HDAC10 inhibition prolonged the retention of doxorubicin, we used a pulse-chase approach in which BE(2)-C cells were pre-treated over night with HDAC6/10 inhibitors and then loaded with high concentrations of doxorubicin for 3 h (1 µg/ml). After doxorubicin washout, HDAC6/10 or HDAC6 inhibitors were re-added (t0), and intracellular doxorubicin fluorescence was measured at t0, as well as 3 h (t3h) and 6 h (t6h) after doxorubicin removal (Fig. 5h–k). […] In summary, secretion of doxorubicin was slowed down in case of HDAC6/10 inhibition but not by specific HDAC6 inhibition alone.\nas §1"}, "[7]": {"system": "proliferating human fibroblasts", "test": "Cell viability, automated trypan blue exclusion, fibroblasts", "format": "cell-based", "conditions": "7.5 µM tubastatin A", "description": "as §2"}, "IMR-32 cells": {"system": "IMR-32 cells", "test": "Flow cytometric quantification of intracellular doxorubicin accumulation, IMR-32", "format": "cell-based, human", "conditions": "50 ng/ml doxorubicin +/− 7.5 µM tubastatin A, 18 h", "description": "as §1"}}, "data": [{"compound": "CN1CCc2c(c3ccccc3n2Cc2ccc(C(=O)NO)cc2)C1", "note": "[tubastatin A]", "values": [{"measurement": "growth of BE(2)-C cells in colony assays, combination with doxorubicin", "setting": "BE(2)-C cells [1]", "result": "effectively reduce growth"}, {"measurement": "intracellular doxorubicin after co-treatment", "setting": "BE(2)-C cells [2]; 100 ng/ml doxorubicin, 48 h, bufexamac 30 µM, tubastatin A 7.5 µM, tubacin 7.5 µM", "result": "increased intracellular doxorubicin"}, {"measurement": "intracellular doxorubicin levels, short-term", "setting": "BE(2)-C cells [2]; 12 h pre-treatment with inhibitor, then 1 µg/ml doxorubicin for 3 h", "result": "increased intracellular doxorubicin levels"}, {"measurement": "DSBs in comet assays, addition to doxorubicin treatment", "setting": "BE(2)-C cells [3]; tubastatin A 7.5 µM + doxorubicin 100 ng/ml", "result": "substantially increased doxorubicin induced DSBs"}, {"measurement": "DSBs in comet assays, single treatment", "setting": "BE(2)-C cells [3]; tubastatin A 7.5 µM or doxorubicin 100 ng/ml", "result": "increased DSBs only trend-wise"}, {"measurement": "viability of BE(2)-C cells, single treatment", "setting": "BE(2)-C cells [4]; 100 ng/ml doxorubicin, 7.5 µM tubastatin A or vacuolin-1 alone", "result": "did not substantially reduce cell viability"}, {"measurement": "viability of BE(2)-C cells, combination with 100 ng/ml doxorubicin, 24 h or 48 h", "setting": "BE(2)-C cells [4]; 7.5 µM tubastatin A", "result": "strongly reduced viability"}, {"measurement": "intracellular doxorubicin in fibroblasts", "setting": "[5]", "result": "did not exhibit strongly increased intracellular doxorubicin"}, {"measurement": "retention of intracellular doxorubicin 3 h and 6 h after doxorubicin removal", "setting": "BE(2)-C cells [6]", "result": "retained higher levels of intracellular doxorubicin"}, {"measurement": "cell death in proliferating fibroblasts, combination with 100 ng/ml doxorubicin, 24 h or 48 h", "setting": "[7]", "result": "did not induce significant cell death"}, {"measurement": "doxorubicin accumulation, IMR-32", "setting": "IMR-32 cells", "result": "increased accumulation of doxorubicin"}]}]}
